Literature values, collected in patent US20130316010A1, “POLYMERIC MICROPARTICLES” (Case Western Reserve University, priority 2010, published 2013).

Test system: EGFR
Details: rodent glaucomatous optic neuropathy model and optic nerve crush model

AG1478
EGFR upregulation and activation of astrocytes: reverses this upregulation and activation of astrocytes | survival of RGCs: increases the survival of RGCs
